The target in one experiment is T1, r5LO-wt (Homo sapiens, UniProt P09917).
T1 sequence (P09917 1-674): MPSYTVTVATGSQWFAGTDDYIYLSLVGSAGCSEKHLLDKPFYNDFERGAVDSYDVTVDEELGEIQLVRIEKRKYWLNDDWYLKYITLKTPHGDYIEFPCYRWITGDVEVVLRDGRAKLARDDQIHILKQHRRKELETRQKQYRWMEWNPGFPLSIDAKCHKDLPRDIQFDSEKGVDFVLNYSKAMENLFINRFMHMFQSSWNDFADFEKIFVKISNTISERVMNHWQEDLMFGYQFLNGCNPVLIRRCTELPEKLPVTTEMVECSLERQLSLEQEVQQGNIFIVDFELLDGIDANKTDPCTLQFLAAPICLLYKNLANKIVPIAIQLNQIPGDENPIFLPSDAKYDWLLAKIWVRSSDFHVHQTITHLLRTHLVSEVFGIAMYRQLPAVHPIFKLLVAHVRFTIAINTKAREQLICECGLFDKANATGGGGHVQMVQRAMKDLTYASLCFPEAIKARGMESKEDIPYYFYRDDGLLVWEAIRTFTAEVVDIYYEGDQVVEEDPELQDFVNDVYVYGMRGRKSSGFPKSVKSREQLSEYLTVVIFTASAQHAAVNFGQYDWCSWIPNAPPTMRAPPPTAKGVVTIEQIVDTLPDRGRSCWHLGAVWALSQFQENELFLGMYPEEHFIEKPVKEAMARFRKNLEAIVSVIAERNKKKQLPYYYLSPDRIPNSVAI
Nature of the experiment: Recombinant 5-LO activity assay (5-HETE). It is filed as biochemical. The procedure: 5-LO activity in intact cells was assayed by measuring LTB4 (leukotriene B4) and 5-HETE (5-hydroxyeicosatetraenoic acid) levels in the PMNL supernatants. Since PMNL preparations (purity >95%) contain eosinophils expressing 15-LO-1 as well as platelets, we also analyzed the effects of NFA on the concomitant formation of […] and 12-(S)-HETE. […] Recombinant 5-LO enzyme activity was assessed by the determination of 5-HETE levels representing a direct product assay. In the cell-based LO activity assays, 5 × 10^6 cells per ml PBS/glucose were transferred to 5 ml glass tubes containing 1 mM CaCl2 and stored on ice. […] Subsequently, the cells were stimulated with calcium ionophore A23187 (2.5 µM) and arachidonic acid (AA, 20 µM) for an additional 10 min at 37°C. Recombinant 5-LO activity assays were carried out using 3 µg r5LO-wt enzyme. The enzyme was diluted in PBS/EDTA/ATP, transferred into 5-ml glass tubes, and stored on ice. […] The samples were then pre-heated at 37°C in a water bath and subsequently stimulated with 1 mM CaCl2 and 20 µM AA for 10 min at 37°C. The reaction was stopped by placing the glass tubes on ice. The supernatants were transferred to 1.5 ml reaction tubes and stored at −80°C before LC-MS (liquid chromatography and mass spectrometry) analysis of LTB4 and HETEs as described in 2.6 at the Institute of Pharmacology, Goethe University, University Hospital, Germany.
The lipid mediators LTB4, hydroxyeicosatetraenoic acids, 5(S)-HETE, 12(S)-HETE, 15(S)-HETE and 20-HETE were analyzed using liquid chromatography tandem-mass spectroscopy (LC-MS/MS). The LC-MS/MS system consisted of a 5500 QTrap mass spectrometer (Sciex, Darmstadt, Germany), operating in negative ESI mode, an Agilent 1200 HPLC system (Agilent, Waldbronn, Germany) and an HTC Pal autosampler (Chromtech, Idstein, Germany).
Suppl. Figure 3: Inhibition of 5-LO derived 5-HETE production by NFA with (A) different carbon chain lengths and (B) different Michael acceptor positions using the r5LO-wt assay. r5LO-wt (3 µg) in PBS/EDTA/ATP buffer was preincubated with the compounds or the vehicle control DMSO (0.1%) for 15 min at 4°C, preheated at 37°C for 30 sec, and subsequently stimulated with 1 mM CaCl 2 and 20 µM AA for another 10 min at 37°C.
5-HETE activity was analyzed by LC-MS. Data are presented as the percent of the control mean ± SD, n = 3–6. AA , arachidonic acid; ATP, adenosine triphosphate; DMSO, dimethyl sulfoxide; EDTA, ethylenediaminetetraacetate; HETE, hydroxyeicosatetraenoic acid; NFA, nitro-fatty acids; PBS, phosphate-buffered saline . […]

The next experiment concerns HT-29 cells. The experiment can be described thus: WST-1 cell viability assay, HT-29. It is filed as cell-based, human. To be noted: n.i. = no inhibition observed; for IC50: Homo sapiens, HT-29, 48 h. The procedure: Cell viability was analyzed with the WST-1 assay based on the cleavage of the stable tetrazolium salt WST-1 by the mitochondrial reductase system. Cells were seeded in the appropriate densities in a clear 96-well plate and settled overnight at 37°C in 5% CO2. The next day, the cells were treated with NFA or the substances of interest (≤0.1% dimethyl sulfoxide [DMSO]) and incubated for 24 or 48 h at 37°C in 5% CO2. Cell viability was analyzed by adding 10 µl WST-1 solution (Roche, Basel, Switzerland) and subsequently incubating the cells at 37°C for another 30–40 min. Absorbance was measured at 450 nm with a control wavelength at 620 nm using a plate reader.
Besides targeting the NF-κB pathway, the anti-tumorigenic effects of NFA can be observed by a reduction of colorectal cancer cell viability. […] Again, the cytotoxic effects of NFA were determined in HCT-116 and HT-29 colorectal cancer cells in the present study. […] HCT-116 cells were treated with increasing concentrations of NFA differing in chain length and Michael acceptor position for 24 h, and cell viability was determined using the WST-1 assay. Due to their prolonged cell division rate and their lack of sensitivity towards NFA ([Kühn et al., 2018]), HT-29 cells were treated for 48 h to gain improved NFA activity.

The mark [1] stands for this setting: 3 µg r5LO-wt, 15 min on ice, 1 mM CaCl2 + 20 µM AA, n.i. = no inhibition observed.

As usually defined, the IC50 is the concentration needed to halve the response being measured.

For `CCC=C(CCCCCCCC(=O)O)[N+](=O)[O-]` [12.9.9, 9-nitro-dodec-9-enoic acid], the IC50 on r5LO-wt (setting [1]) is 75.5 ± 8.1 µM; with HT-29 cells, around 31.5 µM.
For `CCCCC=C(CCCCCCCC(=O)O)[N+](=O)[O-]` [14.9.9, 9-nitro-tetradec-9-enoic acid], in that order: 17.9 ± 1.6 µM and 27.4 ± 1 µM.
For `CCCCCCC=C(CCCCCCCC(=O)O)[N+](=O)[O-]` [16.9.9, 9-nitro-hexadec-9-enoic acid], in that order: 3.3 ± 1.2 µM and 12.7 ± 1.1 µM.
For `CCCCCCCCCCCCCC=C(CCC(=O)O)[N+](=O)[O-]` [18.4.4, 4-nitro-octadec-4-enoic acid], in that order: 0.4 ± 1.2 µM and 23.9 ± 1.1 µM.
Regarding `CCCCCCCCCCCCC=C(CCCC(=O)O)[N+](=O)[O-]` [18.5.5, 5-nitro-octadec-5-enoic acid], the IC50 at r5LO-wt (setting [1]) is 0.4 ± 1.1 µM; with HT-29 cells, 18.5 ± 1.1 µM.
The corresponding values for `CCCCCCCCCCCC=C(CCCCC(=O)O)[N+](=O)[O-]` [18.6.6, 6-nitro-octadec-6-enoic acid] are 1 ± 1.2 µM and 11.1 ± 1.1 µM.
For `CCCCCCCCCCCC(=CCCCCC(=O)O)[N+](=O)[O-]` [18.6.7, 7-nitro-octadec-6-enoic acid], the IC50 was determined as 1.1 ± 1.2 µM on r5LO-wt (setting [1]) and 13.8 ± 1.1 µM with HT-29 cells.
The corresponding values for `CCCCCCCCCCC=C(CCCCCC(=O)O)[N+](=O)[O-]` [18.7.7, 7-nitro-octadec-7-enoic acid] are 0.6 ± 1.3 µM and 4.4 ± 1.1 µM.
The corresponding values for `CCCCCCCCCC=C(CCCCCCC(=O)O)[N+](=O)[O-]` [18.8.8, 8-nitro-octadec-8-enoic acid] are 2.2 ± 1.2 µM and 3.3 ± 1.1 µM.
For `CCCCCCCCCC(=CCCCCCCC(=O)O)[N+](=O)[O-]` [18.8.9, 9-nitro-octadec-8-enoic acid], in that order: 1.9 ± 1.2 µM and 8 ± 1.1 µM.
Turning to `CCCCCCCCC=C(CCCCCCCC(=O)O)[N+](=O)[O-]` [18.9.9, 9-nitro-octadec-9-enoic acid], the IC50 at r5LO-wt (setting [1]) came to 1.1 ± 1.2 µM; in the experiment on HT-29 cells it was 8.8 ± 1.1 µM.
As for `CCCCCCCCC(=CCCCCCCCC(=O)O)[N+](=O)[O-]` [18.9.10, 10-nitro-octadec-9-enoic acid], the IC50 stood at 1.6 ± 1.3 µM at r5LO-wt (setting [1]) and 15.7 ± 1.1 µM in the experiment on HT-29 cells.
For `CCCCCCCC=C(CCCCCCCCC(=O)O)[N+](=O)[O-]` [18.10.10, 10-nitro-octadec-10-enoic acid], the IC50 at r5LO-wt (setting [1]) worked out at 1.6 ± 1.3 µM; in the experiment on HT-29 cells it was 13.9 ± 1.1 µM.
The corresponding values for `CCCCCCC=C(CCCCCCCCCC(=O)O)[N+](=O)[O-]` [18.11.11, 11-nitro-octadec-11-enoic acid] are 0.8 ± 1.2 µM and 16.6 ± 1.1 µM.
For `CCCCCCCCCCC=C(CCCCCCCC(=O)O)[N+](=O)[O-]` [20.9.9, 9-nitro-eicos-9-enoic acid], in that order: 0.9 ± 1.3 µM and 8.1 ± 1.1 µM.
For the compound `CCCCCCCC/C=C\CCCCCCCC(=O)O` [OA, oleic acid, reference compound], the “r5LO-wt 5-HETE IC50” value on r5LO-wt (setting [1]) was “n.i”. For the same compound, the “effect on product formation by recombinant 5-LO” value on r5LO-wt (at concentrations of >10 µM) was “slight inhibitory effect”. For the same compound, the “HT-29 (48 h) IC50” value in the experiment on HT-29 cells was “failed to induce cytotoxic effects and n.i”.
